These results are taken from PMC10502144, “Anti-methicillin-resistant Staphylococcus aureus activity and safety evaluation of 14-O-[(5-ethoxycarbonyl-4,6-dimethylpyrimidine-2-yl) thioacetyl] mutilin (EDT)” (Scientific Reports, 2023).

For series [1], the system named is Salmonella Typhimurium TA1535. Here is the method:
(§1) Before the test, Salmonella Typhimurium (S. Typhimurium) TA97a, TA98, TA100, TA102, TA1535 and Escherichia coli WP2uvrA pKM101 (pKM101) were first checked for their genetic integrity, including biotin dependence, rfa marker (crystal violet), biotin, histidine dependence and presence of the plasmid pKM101 (ampicillin resistance) or pAQ1 (tetracycline resistance). […] The maximum concentration of EDT was also screened using a preliminary experiment.
(§2) DMSO (0.1 mL) was directly incorporated into 1.9 mL melted top agar as the vehicle control. […] Each strain (0.1 mL, 6–7 log10 CFU/mL) was added into 2 mL of top agar in which comprised 0.5 mL S9 (10%), serial concentrations of EDT (2000, 400, 80, 16 and 3.2 μg/plate), DMSO or control chemicals for testing with the S9. For testing without S9, 0.5 mL phosphate buffer saline (PBS, pH 7.4) replaced the S9 mix. Then, the obtained top agar was melted, poured onto the surface of […] and swirled to distribute the top agar to all surfaces of medium, followed by incubation at 37 °C for 48 h. The resultant colonies were counted manually as the number of revertant colonies per plate. The experiments were performed in triplicate and the results were expressed as the average ± SD.

Series [2] deals with Escherichia coli WP2uvrA pKM101. The series is described as follows: Ames test, pKM101. Here is the method: as §1, §2
Series [3] relates to Salmonella Typhimurium TA100. Briefly: Ames test, TA100. It is filed as cell-based. Conditions: TA100, positive control 1μL/plate, −S9. Here is the method: as §1, §2
Background: In the Ames test, an excess of revertant colonies over the control signals mutagenicity.

Series [4] relates to Salmonella Typhimurium TA102. Briefly: Ames test, TA102. Conditions: TA102, positive control 50 μg/plate, −S9. Here is the method: as §1, §2
Series [5] deals with Salmonella Typhimurium TA98. The series is described as follows: Ames test, TA98. Conditions: TA98, positive control 50 μg/plate, −S9. Here is the method:
as §1, §2

The subject of series [6] is Salmonella Typhimurium TA97a. Briefly: Ames test, TA97a. Conditions: positive control 50 μg/plate, −S9. Here is the method:
as §1, §2

Like-named read-outs stand apart in the source and are kept apart here. Marks after values point to notes of the source that are not given here.

As for `Nc1ccc2cc3ccccc3cc2c1` [2-aminoanthracene, reference compound], the “number of revertant colonies per plate” value in series [1] (TA1535, positive control 10 μg/plate, +S9) is recorded as 740.00 ± 44.00^d.
In the case of methyl sulfonate [reference compound], the “number of revertant colonies per plate” value in series [2] is listed as 644.00 ± 38.00^c; in series [3], 1017.33 ± 39.67^c.
In the case of `[N-]=[N+]=[N-].[Na+]` [sodium azide, reference compound], the “number of revertant colonies per plate” value in series [1] (TA1535, positive control 1.5 μg/plate, −S9) is given as 534.33 ± 38.67^e.
With `CN(C)c1ccc(N=NS(=O)(=O)[O-])cc1.[Na+]` [diaxone, reference compound], the “number of revertant colonies per plate” value is reported as 522.00 ± 45.00^b in series [4], 972.00 ± 37.00^b in series [5] and 2472.00 ± 94.00^b in series [6].
